Data as given in patent US20100063162A1, “METHOD FOR PREDICTING EFFICACY OF RAR-ALPHA AGONIST” (TAIHO PHARMACEUTICAL CO., LTD., priority 2005, published 2010).

Key:
[1] = test system: liver cancer; conditions: animal model of liver cancer; cited from earlier work
[2] = test system: HCC-D; test: Orthotopic hepatoma model, tumor weight in the liver, HCC-D; type: in vivo, nude mouse; conditions: oral everyday, 3 weeks, nude mice
Method: (§1) Accordingly, an experiment of therapeutic treatment was performed to examine susceptibility to RAR-α agonists. The cultured liver cancer cells were transplanted in an amount of 1×10^6 cells into the outer left lobes of the livers in nude mice (BALB/cA Jcl-nu, Clea Japan, Inc.), TAC-101 as an RAR-α agonist was orally administered everyday as a 0.5% hydroxypropylmethylcellulose suspension (Shin-Etsu Chemical Co., Ltd.), and then the weights of tumors formed in the livers were measured 3 weeks later to obtain mean inhibition rates. […] Further, it was also observed by two-sided Student's t test that these antitumor effects were statistically significant inhibitory action.

[3] = test system: HCC-E; test: Orthotopic hepatoma model, tumor weight in the liver, HCC-E; type: in vivo, nude mouse; conditions: oral everyday, 3 weeks, nude mice
Method: as §1

[4] = test system: human liver cancer; conditions: phase II study; cited from earlier work
[5] = test system: RAR-α; test: RAR-α transcription activity test (pRARE-SEAP reporter) in hepatocellular carcinoma cells; type: cell-based, human; conditions: for RAR response (T/C %): 24 hours, untreated cells = 100
Method: The test for confirming the RAR-α transcription activity was performed as follows.
Hepatocellular carcinoma cells of each type transfected with a reporter plasmid containing an RAR-α binding sequence with the SEAP gene in a downstream region (pRARE-SEAP-TA-vector, Clontech) were treated with an RAR-α agonist, and then the SEAP alkaline phosphatase activity in the culture supernatant was measured. The cultured hepatocellular carcinoma cells were transfected with the RARE reporter plasmid mixed in a transfection reagent prepared by using the culture broth and FuGENE6 solution at a ratio of 100:6 and cultured for 24 hours. The culture broth was replaced with the one containing TAC-101 as an RAR-α agonist, and the cells were cultured for further 24 hours. Then, the culture supernatant was collected, and transcription activity was confirmed by using an alkaline phosphatase activity measurement reagent (SEAP Detection Kit, Clontech).

[6] = test system: colorectal cancer cell line CAC; test: Survival after spleen inoculation (liver metastasis model), CAC; type: in vivo, nude mouse; conditions: oral every day for 4 weeks, nude mice
From the text: (§2) Further, correlation between the cofactor balance and survival advantage was examined by using cancer cell lines for which survival were evaluatable. When cells of the colorectal cancer cell line CAC, having an AIB1/SP110b ratio of 0.08 so as to be dominant in SP110b, and the aforementioned HCC-E cells are inoculated in the nude mouse spleen, dissemination easily occurs in the liver, resulting in formation of a metastatic condition in the liver. After 1×10^6 of CAC or HCC-E cells were transplanted, and TAC-101 was orally administered every day for 4 weeks, the survival time of each model animal was observed. In the CAC model, in which SP110b was dominant, prolongation of the survival time was only 26%, whereas in the HCC-E model, in which the class of the p160 family molecule was dominant, nearly […] longer survival time prolongation of 81% was confirmed. Further, this effect in the HCC-E model was also statistically significant (P<0.001).

[7] = test system: HCC-C; test: Orthotopic hepatoma model, tumor weight in the liver, HCC-C; type: in vivo, nude mouse; conditions: oral everyday, 3 weeks, nude mice
Method: as §1

[8] = test system: HCC-E cells; test: Survival after spleen inoculation (liver metastasis model), HCC-E; type: in vivo, nude mouse; conditions: oral every day for 4 weeks, nude mice
From the text: as §2

C[Si](C)(C)c1cc(C(=O)Nc2ccc(C(=O)O)cc2)cc([Si](C)(C)C)c1 [TAC-101, 4-[3,5-Bis(trimethylsilyl)benzamido]benzoic acid]
antitumor activity (in words) [1]: antitumor activity of TAC-101 was observed | Inhibition (%) of tumor growth (tumor weight, mean inhibition rate) [2]: −3% | therapeutic effect (in words) [2]: no therapeutic effect was observed | Inhibition (%) of tumor growth (tumor weight, mean inhibition rate) [3]: 67% | prevention of tumor progression [4]: 43% | RAR response (T/C %) ([5]; HCC-A cells, TAC-101 0.3 μM): 142% | RAR response (T/C %) ([5]; HCC-A cells, TAC-101 1 μM): 110% | RAR response (T/C %) ([5]; HCC-A cells, TAC-101 3 μM): 143% | RAR response (T/C %) ([5]; HCC-B cells, TAC-101 0.3 μM): 180% | RAR response (T/C %) ([5]; HCC-B cells, TAC-101 1 μM): 188% | RAR response (T/C %) ([5]; HCC-B cells, TAC-101 3 μM): 146% | RAR transcription activity induced by TAC-101 (in words) ([5]; HCC-C cells): high | RAR response (T/C %) ([5]; HCC-C cells, TAC-101 0.3 μM): 342% | RAR response (T/C %) ([5]; HCC-C cells, TAC-101 1 μM): 497% | RAR response (T/C %) ([5]; HCC-C cells, TAC-101 3 μM): 285% | RAR transcription activity induced by TAC-101 (in words) ([5]; HCC-D cells): weak | RAR response (T/C %) ([5]; HCC-D cells, TAC-101 0.3 μM): 161% | RAR response (T/C %) ([5]; HCC-D cells, TAC-101 1 μM): 161% | RAR response (T/C %) ([5]; HCC-D cells, TAC-101 3 μM): 168% | RAR transcription activity induced by TAC-101 (in words) ([5]; HCC-E cells): high | RAR response (T/C %) ([5]; HCC-E cells, TAC-101 0.3 μM): 476% | RAR response (T/C %) ([5]; HCC-E cells, TAC-101 1 μM): 482% | RAR response (T/C %) ([5]; HCC-E cells, TAC-101 3 μM): 259% | Increase of life span (%) [6]: 26% | Inhibition (%) of tumor growth (tumor weight, mean inhibition rate) [7]: 81% | Increase of life span (%) [8]: 81%
